Assay results taken from article PMC12304826, “Redirecting the Peptide Cleavage Causes Protease Inactivation” (Angewandte Chemie (International Ed. in English), 2025).

Molecular target: T1, human cathepsin B (Homo sapiens, UniProt P07858)
T1 construct: purchased Calbiochem, Darmstadt, Germany
Assay: Cathepsin B reactivation experiment
Format: biochemical
Settings: 30 min incubation with 0.5 µM, spin-filter removal of inhibitor, 200 min
Description: Figure S2. Reactivation experiment of human cathepsin B after incubation with the carbamate inhibitors 7 and 31. Cathepsin B (38 µg/mL) was incubated under assay conditions for 30 min with • DMSO, • 5 µM of compound 7, or • 0.5 µM of compound 31. After removal of assay buffer, DMSO and excessive inhibitor by spin-filter centrifugation, product formation was followed in the presence of Cbz-Arg-Arg-pNA as substrate for 200 min. A negative control (•) containing only substrate and no enzyme was used to measure spontaneous decay of the substrate.
(also on this page, place not known: time (min) 0 60 120 180 absorption 0 0.2 0.4 0.6)
(1 picture or pasted object on this page, not shown here)

## O=C(NC(CC1CCCCC1)C(=O)NC(Cc1ccccc1)C(=O)O)Oc1ccc(NC(=O)C(Cc2ccccc2)Cc2ccccc2)c(Cl)c1 (stereo not shown) [Compound 31]
  reversibility of cathepsin B inhibition: irreversible
